≈ marks a conversion by molar mass, not a printed value. Where two headings read alike, the source gives them in different places.
Columns and labels:
A549 cells = experiment: Inhibition of cancer cell growth, MTT assay; type: cell-based; conditions: Homo sapiens; A549 cells, 72 h compound exposure, MTT; read-out: IC50
Procedure: Inhibition of cell growth by compounds was measured using MTT assay (Mosmann, T., Journal of Immunological Methods, 1983, 65, 55-63). Tumor cell lines were purchased from ATCC (American Type Culture Collection, Manassas, Va.). All cell lines were maintained in RPMI 1640 (Hyclone) supplemented with 10% fetal bovine serum (FBS, Hyclone), glutamine (2 mM, Hyclone), and antibiotics (penicillin 100 U/mL and streptomycin 50 μg/mL) at 37° C. in a humidified atmosphere of 5% CO2 in air. Taxol (as a positive control, Sigma) and compounds were dissolved in DMSO (Sigma), and the final concentration of DMSO in the medium was 1%. Tumor cells were plated in 96-well plates at densities of about 4000 cells/well of a 96-well plate and allowed to adhere/grow for 24 h. They were then treated with various concentrations of drug for 72 h. 3-(4,5-Dimethylthiazol-2-yl)-2,5-diphenyltetrazolium bromide (MTT, Sigma) was used to determine the number of viable cells at the time of compound addition and the number of cells remaining after 72 h compound exposure. The number of cells remaining after 72 h was compared to the number of viable cells at the time of compound addition by measuring the absorbance at 570 nm, allowing for the calculation of growth inhibition.
All concentrations of compounds were tested in triplicate and controls were averaged over 4 wells. IC50 was calculated by plotting the concentration of compound vs the percentage of inhibition in treated wells using GraphPad Prism 5. […] The scale utilized in Table 3 is as follows: ++++ less than 20 nM; +++ between 20 nM and 100 nM; ++ between 100 nM and 1000 nM; and + greater than 1000 nM.

[1] = Equilibrium solubility in aqueous buffer (HPLC UV); type: physicochemical; conditions: thermodynamic from solid
Procedure: The equilibrium solubility of compounds was measured in aqueous buffer. Excess amount of solid compound was added into buffer solution and the sample was briefly sonicated and then shaken at rt for 24 h. The sample was filtered and the concentration was analyzed by HPLC UV. A standard solution at 0.2 mg/mL was prepared in methanol or acetonitrile for each compound and used as an external standard for quantification. The scale utilized in Tables 2 is as follows: +++ greater than 1 mg/mL; ++ between 1 and 0.1 mg/mL; and + less than 0.1 mg/mL.

[2] = aqueous buffer, equilibrium solubility, NaOAc/AcOH buffer (100 mM, pH 5.0), rt, 24 h, read-out: Solubility

| Compound | IC50 (A549 cells) [µM] | solubility at 24 h ([1]; pH 5, aqueous buffer) [mg/mL] | solubility at 24 h [1, 2] [mg/mL] |
| --- | --- | --- | --- |
| C[C@]12CCC(NC(=O)N3CCNCC3)C[C@H]1CC[C@@H]1[C@@H]2CC[C@]2(C)[C@@H](C3=CC(=O)OC3)CC[C@]12O (stereo partly drawn) [Compound C24, N-((5R,8R,9S,10S,13R,14S,17R)-14-hydroxy-10,13-dimethyl-17-(5-oxo-2,5-dihydrofuran-3-yl)hexadecahydro-1H-cyclopenta[a]phenanthren-3-yl)piperazine-1-carboxamide] | 0.02 to 0.1 | > 1 |  |
| C[C@]12CCC(N3CCNC(=O)C3)C[C@H]1CC[C@@H]1[C@@H]2CC[C@]2(C)[C@@H](c3ccc(=O)oc3)CC[C@]12O (stereo partly drawn) [Compound C19, 4-((5R,8R,9S,10S,13R,14S,17R)-14-hydroxy-10,13-dimethyl-17-(2-oxo-2H-pyran-5-yl)hexadecahydro-1H-cyclopenta[a]phenanthren-3-yl)piperazin-2-one] | 0.02 to 0.1 |  | 0.1 to 1 (≈ 213 to 2130 µM) |
| C[C@@H](N)C(=O)N[C@H]1CC[C@@]2(C)[C@H](CC[C@@H]3[C@@H]2CC[C@]2(C)[C@@H](c4ccc(=O)oc4)CC[C@]32O)C1 [Compound C26, (R)-2-amino-N-((3S,5R,8R,9S,10S,13R,14S,17R)-14-hydroxy-10,13-dimethyl-17-(2-oxo-2H-pyran-5-yl)hexadecahydro-1H-cyclopenta[a]phenanthren-3-yl)propanamide] | < 0.02 |  | > 1 |
| C[C@]12CC[C@H](NC(=O)NCCN)C[C@H]1CC[C@@H]1[C@@H]2CC[C@]2(C)[C@@H](c3ccc(=O)oc3)CC[C@]12O [Compound C10, 1-(2-aminoethyl)-3-((3S,5R,8R,9S,10S,13R,14S,17R)-14-hydroxy-10,13-dimethyl-17-(2-oxo-2H-pyran-5-yl)hexadecahydro-1H-cyclopenta[a]phenanthren-3-yl)urea] | < 0.02 |  | > 1 |
| C[C@]12CCC(N3CCCC3)C[C@H]1CC[C@@H]1[C@@H]2CC[C@]2(C)[C@@H](c3ccc(=O)oc3)CC[C@]12O (stereo partly drawn) [Compound C20, 5-((5R,8R,9S,10S,13R,14S,17R)-14-hydroxy-10,13-dimethyl-3-(pyrrolidin-1-yl)hexadecahydro-1H-cyclopenta[a]phenanthren-17-yl)-2H-pyran-2-one] | < 0.02 |  | > 1 |
| C[C@]12CC[C@H](NC(=O)N3CCOCC3)C[C@H]1CC[C@@H]1[C@@H]2CC[C@]2(C)[C@@H](c3ccc(=O)oc3)CC[C@]12O [Compound C02, N-((3S,5R,8R,9S,10S,13R,14S,17R)-14-hydroxy-10,13-dimethyl-17-(2-oxo-2H-pyran-5-yl)hexadecahydro-1H-cyclopenta[a]phenanthren-3-yl)morpholine-4-carboxamide] | < 0.02 |  | < 0.1 |
| CC(C)[C@@H](N)C(=O)N(C)C1CC[C@@]2(C)[C@H](CC[C@@H]3[C@@H]2CC[C@]2(C)[C@@H](c4ccc(=O)oc4)CC[C@]32O)C1 (stereo partly drawn) [Compound C22, (2R)-2-amino-N-((5R,8R,9S,10S,13R,14S,17R)-14-hydroxy-10,13-dimethyl-17-(2-oxo-2H-pyran-5-yl)hexadecahydro-1H-cyclopenta[a]phenanthren-3-yl)-N,3-dimethylbutanamide] | 0.02 to 0.1 |  | > 1 |
| C[C@]12CC[C@H](NC(=O)CN)C[C@H]1CC[C@@H]1[C@@H]2CC[C@]2(C)[C@@H](c3ccc(=O)oc3)CC[C@]12O [Compound C12, 2-amino-N-((3S,5R,8R,9S,10S,13R,14S,17R)-14-hydroxy-10,13-dimethyl-17-(2-oxo-2H-pyran-5-yl)hexadecahydro-1H-cyclopenta[a]phenanthren-3-yl)acetamide] | < 0.02 |  | > 1 |
| C[C@]12CCC(NC(=O)N3CCOCC3)C[C@@]1(O)CC[C@@H]1[C@@H]2CC[C@]2(C)[C@@H](c3ccc(=O)oc3)CC[C@]12O (stereo partly drawn) [Compound C30, N-((5S,8R,9S,10R,13R,14S,17R)-5,14-dihydroxy-10,13-dimethyl-17-(2-oxo-2H-pyran-5-yl)hexadecahydro-1H-cyclopenta[a]phenanthren-3-yl)morpholine-4-carboxamide] | 0.02 to 0.1 |  | 0.1 to 1 (≈ 194 to 1940 µM) |
| C[C@]12CC[C@H](NC(=O)N3CCNCC3)C[C@H]1CC[C@@H]1[C@@H]2CC[C@]2(C)[C@@H](c3ccc(=O)oc3)CC[C@]12O [Compound C04, N-((3S,5R,8R,9S,10S,13R,14S,17R)-14-hydroxy-10,13-dimethyl-17-(2-oxo-2H-pyran-5-yl)hexadecahydro-1H-cyclopenta[a]phenanthren-3-yl)piperazine-1-carboxamide] | < 0.02 |  | > 1 |
| C[C@]12CCC(NCCN3CCOCC3)C[C@H]1CC[C@@H]1[C@@H]2CC[C@]2(C)[C@@H](c3ccc(=O)oc3)CC[C@]12O (stereo partly drawn) [Compound C18, 5-((5R,8R,9S,10S,13R,14S,17R)-14-hydroxy-10,13-dimethyl-3-((2-morpholinoethyl)amino)hexadecahydro-1H-cyclopenta[a]phenanthren-17-yl)-2H-pyran-2-one] | 0.1 to 1 |  | > 1 |
| C[C@]12CCC(N3CCOCC3)C[C@H]1CC[C@@H]1[C@@H]2CC[C@]2(C)[C@@H](c3ccc(=O)oc3)CC[C@]12O (stereo partly drawn) [Compound C28, 5-((5R,8R,9S,10S,13R,14S,17R)-14-hydroxy-10,13-dimethyl-3-morpholinohexadecahydro-1H-cyclopenta[a]phenanthren-17-yl)-2H-pyran-2-one] | 0.1 to 1 |  | > 1 |
| CN(CCO)C1CC[C@@]2(C)[C@H](CC[C@@H]3[C@@H]2CC[C@]2(C)[C@@H](c4ccc(=O)oc4)CC[C@]32O)C1 (stereo partly drawn) [Compound C32, 5-((5R,8R,9S,10S,13R,14S,17R)-14-hydroxy-3-((2-hydroxyethyl)(methyl)amino)-10,13-dimethylhexadecahydro-1H-cyclopenta[a]phenanthren-17-yl)-2H-pyran-2-one] | 0.1 to 1 |  | < 0.1 |
| C[C@]12CCC(NCCN3CCCC3)C[C@H]1CC[C@@H]1[C@@H]2CC[C@]2(C)[C@@H](c3ccc(=O)oc3)CC[C@]12O (stereo partly drawn) [Compound C27, 5-((5R,8R,9S,10S,13R,14S,17R)-14-hydroxy-10,13-dimethyl-3-((2-(pyrrolidin-1-yl)ethyl)amino)hexadecahydro-1H-cyclopenta[a]phenanthren-17-yl)-2H-pyran-2-one] | < 0.02 |  | > 1 |

Source: patent US11325940B2, “Certain chemical entities, compositions, and methods” (NeuPharma, Inc., priority 2012, dated 2022)
